Results published in patent US11753445B2, “Therapeutic peptides” (COHBAR, INC., priority 2016, dated 2023).

What was measured:
Human Primary Adipocytes [1] = test: Free fatty acid levels in cultured human primary adipocytes, forskolin stimulated (Example 5); assay type: cell-based; settings: forskolin 1 μM; for Free Fatty Acid Levels in Human Primary Adipocytes Expressed as a Percent of Forskolin Control: Percent of Control Value: test peptides 25 μM
In short: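 Differentiated human primary adipocytes (14–24 days) were exposed to peptides at 25 μM for 18–20 h and 1 h, then stimulated with 1 μM forskolin plus peptide for 3 h at 37 °C. Medium free fatty acids were measured colorimetrically (540 nm), background-corrected and expressed relative to forskolin-only cells.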

Human Primary Adipocytes [2] = test: Free fatty acid levels in cultured human primary adipocytes, isoproterenol stimulated (Example 4); assay type: cell-based; settings: isoproterenol 1 nM; for Free Fatty Acid Levels in Human Primary Adipocytes Expressed as a Percent of Isoproterenol Control: Percent of Control Value: test peptides 25 μM
Protocol: Human primary adipocytes were seeded at 5,000-100,000 cells per well on 96-well, 48-well, or 24-well plates in Pre-adipocyte Medium (Zen-Bio, Durham, N.C.) and grown to confluence at 37° C. in a humidified atmosphere of 5% CO2/95% air. Two days after confluence, cells were placed in Adipocyte Differentiation Medium (Zen-Bio, Durham, N.C.) and cultured for three additional days at 37° C. in a humidified atmosphere of 5% CO2/95% air. The culture media was then replaced with Adipocyte Maintenance Medium (Zen-Bio) and the cells were maintained for an additional 11-21 days at 37° C. in a humidified atmosphere of 5% CO2/95% air with partial medium replacement every other day. Following 14-24 days of differentiation, test peptides were added at a final concentration of 25 μM and incubated for 18-20 hours in Adipocyte Maintenance Medium at 37° C. in a humidified atmosphere of 5% CO2/95%. After 18-20 hours, the media was exchanged with fresh Adipocyte Maintenance Medium containing test peptides and incubated for 1 h at 37° C. in a humidified atmosphere of 5% CO2/95%. After 1 h media was exchanged with Assay Buffer (Zen-Bio) containing isoproterenol (1 nM) (added to all samples except untreated controls) and test peptides. Cells were incubated for a further 3 hours at 37° C. in a humidified atmosphere of 5% CO2/95%. Free fatty acid concentrations in the media were determined using a Free Fatty Acid Assay Kit (Zen-Bio) according to the manufacturer's instructions using a plate reader (540 nm). Absorbance values were corrected for untreated background and expressed relative to isoproterenol treated cells. Treatment with isoproterenol (1 nM) alone was used as the free fatty acid level stimulatory control. The relative standard deviation of the isoproterenol control was <14%. […] Free fatty acid levels for insulin (100 nM) treatment were <5% of the isoproterenol control value.

[3] = tested on: Diet Induced Obese (DIO) mice; test: Body weight, blood glucose and fat mass in Diet Induced Obese mice, 10 days (Example 6); assay type: in vivo, Male C57BL/6 mice; settings: male DIO mice; 10 days twice daily intraperitoneal 15 mg/kg; N = 8; mean
In short: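 Male DIO mice (n=8/group), randomized by blood glucose and body weight, dosed 15 mg/kg/dose once or twice daily s.c. or i.p. for 10 days vs vehicle. Body weight, blood glucose and food intake monitored; fat vs lean mass by quantitative whole-body NMR before and after dosing.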

3T3-L1 Adipocytes = test: Free fatty acid levels in cultured mouse 3T3-L1 adipocytes, isoproterenol stimulated (Example 2); assay type: cell-based; settings: isoproterenol 1 nM; for Free Fatty Acid Levels in 3T3-L1 Adipocytes Expressed as a Percent of Isoproterenol Control: Percent of Control Value: test peptides 25 μM
In short: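 3T3-L1 cells differentiated 12–17 days into adipocytes, then exposed to test peptides at 25 μM final for 18–20 h, then 1 h, then 3 h with isoproterenol (1 nM) at 37 °C. Free fatty acids in the medium measured colorimetrically at 540 nm, corrected for untreated background and expressed relative to isoproterenol-only cells.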

[4] = insulin 100 nM, human primary adipocytes

Substance	Free Fatty Acid Levels in Human Primary Adipocytes Expressed as a Percent of Forskolin Control: Percent of Control Value (Human Primary Adipocytes [1])	Free Fatty Acid Levels in Human Primary Adipocytes Expressed as a Percent of Isoproterenol Control: Percent of Control Value (Human Primary Adipocytes [2])	Difference from Vehicle Control: Decrease from Baseline in Blood Glucose [3]	Difference from Vehicle Control: Decrease from Baseline in Body Weight (%) [3]	Difference from Vehicle Control: Decrease from Baseline in Fat Mass [3]	Free Fatty Acid Levels in 3T3-L1 Adipocytes Expressed as a Percent of Isoproterenol Control: Percent of Control Value (3T3-L1 Adipocytes)	Free fatty acid levels, % of the forskolin control value (Human Primary Adipocytes [1]; [4])	Free fatty acid levels, % of the isoproterenol control value (Human Primary Adipocytes [2]; [4])	Free fatty acid levels, % of the isoproterenol control value (3T3-L1 Adipocytes; insulin 100 nM, 3T3-L1 adipocytes)
H-MRWQEMGYIFYPRKLA-OH [compound 21]	113%	88.9%	-4.21 mg/dL	−3.00%	-2.03 g	45.1%			
H-MRWQEMGYIFYPRKLR-OH [compound 2]	111%	107%	-4.88 mg/dL	−0.58%	-0.24 g	63.3%			
H-MRWQEMGYIFYPRNLR-OH [compound 213]	90.8%	103%	-20.1 mg/dL	−4.21%	-1.16 g	48.1%			
H-MRWQEMNYIFYPR-OH [compound 208]	90.2%	70.9%	-11.5 mg/dL	−5.05%	-1.87 g	57.9%			
H-MRWQEMQYIFYPRALR-OH [compound 219]	84.0%	69.4%	-17.3 mg/dL	−4.09%	-1.37 g	38.9%			
H-RWQEMNYIFYPR-OH [compound 210]	95.2%	75.5%	8.25 mg/dL	−3.70%	-1.45 g	44.6%			
H-RWQEMQYIFYPR-OH [compound 211]	90.1%	79.9%	-2.25 mg/dL	−1.04%	-0.43 g	29.9%			
Insulin [reference compound]							< 8%	< 5%	< 5%
